Like-named read-outs stand apart in the source and are kept apart here.
Columns and labels:
Type in all cases: in vivo
[1] = test system: Polygonum convolvulus (POLCO); experiment: Post-emergence herbicidal action against POLCO
Method in brief: (§1)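 Rates were 320 g/ha or below, applied as aqueous WP/EC spray with 0.5% additive (600 l/ha) onto one-leaf-stage plants. About 3 weeks later in the greenhouse, damage was scored visually against untreated plants on a 0–100% scale, where 100% means plants died.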

Oryza sativa (ORYSA) [2] = details: crop plant compatibility
Method in brief: (§2)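 Percent effect on the crop was judged by eye against untreated controls, where 0% means like control and 100% means dead plants. Plants had been sprayed post-emergence at the one-leaf stage and then kept under optimum greenhouse conditions for about 3 weeks.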

[3] = test system: Alopecurus myosuroides (ALOMY); experiment: Post-emergence herbicidal action against ALOMY; details: visual rating about 3 weeks after treatment vs untreated controls (100% = plants have died, 0% = like control plants)
Method in brief: as §1

[4] = test system: Matricaria inodora (MATIN); experiment: Pre-emergence herbicidal action against MATIN
Method in brief: (§3)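 Greenhouse pot trial: seeds sown, soil-covered, sprayed before emergence with compound in water (0.5% additive; 600 l/ha; ≤320 g/ha). Scoring visual, ~3 weeks, 0–100% scale vs untreated.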

[5] = test system: Pharbitis purpurea (PHBPU); experiment: Post-emergence herbicidal action against PHBPU
Method in brief: as §1

Lolium rigidum (LOLRI) [6] = experiment: Pre-emergence herbicidal action against LOLRI
Method in brief: as §3

[7] = test system: Amaranthus retroflexus (AMARE); experiment: Post-emergence herbicidal action against AMARE
Method in brief: as §1

Glycine max (GLXMA) = details: pre-emergence, 80 g/ha, crop plant compatibility, in comparison to untreated controls
Method in brief: (§4)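 Scoring: visual, % of untreated control, about 3 weeks after a pre-emergence application to the soil surface. Application used WP or EC formulations diluted in water with 0.5% additive at 600 l/ha; dosage levels are marked by suffixes a, b and c.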

Avena fatua (AVEFA) [8] = experiment: Pre-emergence herbicidal action against AVEFA; details: visual scoring after about 3 weeks vs untreated controls
Method in brief: as §3

Viola tricolor (VIOTR) [9] = experiment: Post-emergence herbicidal action against VIOTR
Method in brief: as §1

[10] = test system: Echinochloa crus-galli (ECHCG); experiment: Pre-emergence herbicidal action against ECHCG
Method in brief: as §3

Avena fatua (AVEFA) [11] = experiment: Post-emergence herbicidal action against AVEFA; details: visual rating about 3 weeks after treatment
Method in brief: as §1

[12] = test system: Amaranthus retroflexus (AMARE); experiment: Pre-emergence herbicidal action against AMARE; details: visual scoring after about 3 weeks vs untreated controls
Method in brief: as §3

[13] = test system: Verconica persica (VERPE); experiment: Pre-emergence herbicidal action against VERPE; details: dosage 320 g/ha
Method in brief: as §3

[14] = test system: Digitaria sanguinalis (DIGSA); experiment: Post-emergence herbicidal action against DIGSA; details: 320 g/ha, visual rating about 3 weeks after treatment
Method in brief: as §1

Viola tricolor (VIOTR) [15] = experiment: Pre-emergence herbicidal action against VIOTR
Method in brief: as §3

[16] = test system: Alopecurus myosuroides (ALOMY); experiment: Pre-emergence herbicidal action against ALOMY; details: 320 g/ha; scored visually after about 3 weeks; 100% = plants have died
Method in brief: as §3

[17] = test system: Digitaria sanguinalis (DIGSA); experiment: Pre-emergence herbicidal action against DIGSA
Method in brief: as §3

[18] = test system: Matricaria inodora (MATIN); experiment: Post-emergence herbicidal action against MATIN
Method in brief: as §1

Setaria viridis (SETVI) [19] = experiment: Pre-emergence herbicidal action against SETVI
Method in brief: as §3

Setaria viridis (SETVI) [20] = experiment: Post-emergence herbicidal action against SETVI
Method in brief: as §1

Lolium rigidum (LOLRI) [21] = experiment: Post-emergence herbicidal action against LOLRI
Method in brief: as §1

[22] = test system: Echinochloa crus-galli (ECHCG); experiment: Post-emergence herbicidal action against ECHCG
Method in brief: as §1

[23] = test system: Verconica persica (VERPE); experiment: Post-emergence herbicidal action against VERPE
Method in brief: as §1

Zea mays (ZEAMX) [24] = details: for Post-emergence action against ZEAMX in %: crop plant compatibility, effect vs untreated controls
Method in brief: as §2

[25] = test system: Abutilon theophrasti (ABUTH); experiment: Pre-emergence herbicidal action against ABUTH; details: Dosage column 320 g/ha (title prints 3200 g/ha); scored visually after about 3 weeks; 100% = plants have died
Method in brief: as §3

[26] = test system: Pharbitis purpurea (PHBPU); experiment: Pre-emergence herbicidal action against PHBPU
Method in brief: as §3

[27] = test system: Polygonum convolvulus (POLCO); experiment: Pre-emergence herbicidal action against POLCO; details: dosage 320 g/ha
Method in brief: as §3

[28] = test system: Abutilon theophrasti (ABUTH); experiment: Post-emergence herbicidal action against ABUTH; details: 80 g/ha, visual rating about 3 weeks after treatment vs untreated controls (100% = plants have died, 0% = like control plants)
Method in brief: as §1

[29] = test system: Triticum aestivum (TRZAS); details: crop plant compatibility, 80 g/ha, effect vs untreated controls
Method in brief: as §2

Oryza sativa (ORYSA) [30] = details: pre-emergence, crop plant compatibility, in comparison to untreated controls
Method in brief: as §4

Zea mays (ZEAMX) [31] = details: pre-emergence, 80 g/ha, crop plant compatibility, in comparison to untreated controls
Method in brief: as §4

[32] = 80 g/ha, effect in comparison to untreated controls
[33] = 320 g/ha, visual rating about 3 weeks after treatment
[34] = 320 g/ha, effect in comparison to untreated controls

Post-emergence action against ORYSA in % (Oryza sativa (ORYSA) [2]; [32]) | Pre-emergence action against GLXMA in % (Glycine max (GLXMA)) | SMILES | Post-emergence action against POLCO in % ([1]; dosage 320 g/ha) | Post-emergence action against ALOMY in % ([3]; 320 g/ha) | Pre-emergence action against MATIN in % ([4]; dosage 320 g/ha) | Pre-emergence action against LOLRI in % (Lolium rigidum (LOLRI) [6]; dosage 80 g/ha) | Pre-emergence action against LOLRI in % (Lolium rigidum (LOLRI) [6]; dosage 320 g/ha) | Post-emergence action against AMARE in % [7, 33] | Pre-emergence action against AVEFA in % (Avena fatua (AVEFA) [8]; 320 g/ha) | Post-emergence action against VIOTR in % (Viola tricolor (VIOTR) [9]; 80 g/ha) | Post-emergence action against VIOTR in % (Viola tricolor (VIOTR) [9]; 320 g/ha) | Pre-emergence action against ECHCG in % ([10]; dosage 320 g/ha) | Post-emergence action against AVEFA in % (Avena fatua (AVEFA) [11]; 80 g/ha) | Pre-emergence action against AMARE in % ([12]; 320 g/ha) | Pre-emergence action against VERPE in % [13] | Post-emergence action against DIGSA in % [14] | Pre-emergence action against VIOTR in % (Viola tricolor (VIOTR) [15]; 320 g/ha, Viola tricolor) | Pre-emergence action against VIOTR in % (Viola tricolor (VIOTR) [15]; dosage 80 g/ha) | Pre-emergence action against ALOMY [16] | Pre-emergence action against SETVI in % (Setaria viridis (SETVI) [19]; dosage 320 g/ha) | further results
20% | 20% | COC(=O)[C@@H](C)Oc1nn(-c2nc(F)ccc2F)c(-c2ccc(F)nc2)c1C1CC1 [Example I-298] | 80% | 90% | 90% | 90% | 100% | 80% | 90% | 80% | 90% | 100% | 80% | 100% | 100% | 80% | 100% | 100% | 90% | 100% | Post-emergence action against PHBPU in % ([5]; dosage 320 g/ha): 90%; Pre-emergence action against ECHCG in % ([10]; dosage 80 g/ha): 90%; Post-emergence action against AVEFA in % (Avena fatua (AVEFA) [11]; 320 g/ha): 90%; Pre-emergence action against DIGSA in % ([17]; 80 g/ha, visual scoring after about 3 weeks vs untreated controls): 100%; Pre-emergence action against DIGSA in % ([17]; dosage 320 g/ha): 100%; Post-emergence action against MATIN in % ([18]; dosage 320 g/ha): 80%; Pre-emergence action against SETVI in % (Setaria viridis (SETVI) [19]; dosage 80 g/ha): 100%; Post-emergence action against SETVI in % (Setaria viridis (SETVI) [20]; dosage 80 g/ha): 90%; Post-emergence action against SETVI in % (Setaria viridis (SETVI) [20]; dosage 320 g/ha): 90%; Post-emergence action against LOLRI in % (Lolium rigidum (LOLRI) [21]; dosage 80 g/ha): 90%; Post-emergence action against LOLRI in % (Lolium rigidum (LOLRI) [21]; dosage 320 g/ha): 90%; Post-emergence action against ECHCG in % ([22]; dosage 80 g/ha): 80%; Post-emergence action against ECHCG in % ([22]; dosage 320 g/ha): 90%; Post-emergence action against VERPE in % ([23]; 320 g/ha, VERPE): 80%; Post-emergence action against VERPE in % ([23]; dosage 80 g/ha): 80%
– | 0% | COC(=O)CCOC(=O)COc1nn(-c2ccccn2)c(-c2cncc(F)c2)c1Br [Example I-77] | – | – | 90% | 90% | 100% | – | 90% | – | – | 100% | 90% | 100% | 90% | – | 100% | 90% | 90% | 100% | Post-emergence action against POLCO in % ([1]; dosage 80 g/ha): 80%; Post-emergence action against ORYSA in % (Oryza sativa (ORYSA) [2]; 20 g/ha, effect vs untreated controls): 0%; Post-emergence action against ZEAMX in % (crop plant compatibility) (Zea mays (ZEAMX) [24]; 20 g/ha, ZEAMX, effect in comparison to untreated controls): 0%; Post-emergence action against ALOMY in % ([3]; 80 g/ha): 90%; Pre-emergence action against MATIN in % ([4]; dosage 80 g/ha): 80%; Post-emergence action against PHBPU in % ([5]; dosage 80 g/ha): 90%; Pre-emergence action against ABUTH [25]: 80%; Pre-emergence action against PHBPU in % ([26]; dosage 80 g/ha): 80%; Pre-emergence action against PHBPU in % ([26]; dosage 320 g/ha): 90%; Post-emergence action against AMARE in % ([7]; 80 g/ha, visual rating about 3 weeks after treatment vs untreated controls (100% = plants have died, 0% = like control plants)): 80%; Pre-emergence action against AVEFA in % (Avena fatua (AVEFA) [8]; 80 g/ha): 80%; Pre-emergence action against POLCO in % [27]: 90%; Pre-emergence action against AMARE in % ([12]; 80 g/ha): 90%; Post-emergence action against MATIN in % ([18]; dosage 80 g/ha): 90%; Post-emergence action against SETVI in % (Setaria viridis (SETVI) [20]; dosage 80 g/ha): 80%; Post-emergence action against ECHCG in % ([22]; dosage 80 g/ha): 90%; Post-emergence action against ABUTH in % [28]: 80%; Post-emergence action against VERPE in % ([23]; dosage 80 g/ha): 90%
0% | 0% | C[C@H](NC(=O)COc1nn(-c2ccnc(F)c2)c(-c2ccc(F)nc2)c1Br)C(=O)O [III-25] | – | – | – | – | – | 80% | – | – | – | – | – | 80% | – | – | – | – | – | – | Post-emergence action against ORYSA in % (Oryza sativa (ORYSA) [2]; [34]): 0%; Post-emergence action against TRZAS in % [29]: 0%; Post-emergence action against ZEAMX in % (Zea mays (ZEAMX) [24]; 80 g/ha): 0%; Post-emergence action against ZEAMX in % (Zea mays (ZEAMX) [24]; 320 g/ha): 0%; Pre-emergence action against ORYSA in % (Oryza sativa (ORYSA) [30]; 80 g/ha): 0%; Pre-emergence action against ORYSA in % (Oryza sativa (ORYSA) [30]; 320 g/ha): 0%; Pre-emergence action against ZEAMX in % (Zea mays (ZEAMX) [31]): 20%
0% | 10% | CC(C)C(Oc1nn(-c2ccccn2)c(-c2ccc(F)nc2)c1Br)C(=O)O (stereo not shown) [Example I-347] | 80% | 80% | 80% | – | – | – | – | 80% | 80% | – | – | – | – | 80% | 100% | 90% | 80% | 80% | Post-emergence action against ORYSA in % (Oryza sativa (ORYSA) [2]; [34]): 0%; Post-emergence action against ZEAMX in % (Zea mays (ZEAMX) [24]; 80 g/ha): 20%; Pre-emergence action against POLCO in % [27]: 80%; Pre-emergence action against DIGSA in % ([17]; dosage 320 g/ha): 90%; Post-emergence action against ECHCG in % ([22]; dosage 320 g/ha): 80%
